Our source for the Activity values is ChEMBL document CHEMBL2073982, “Bumetanide is not transported by the Ntcp or by the oatp: evidence for a third organic anion transporter in rat liver cells” (Biochim Biophys Acta, 1996).

In this data set the target is T1, Solute carrier organic anion transporter family member 1A1 (Rattus norvegicus, UniProt P46720).
T1 sequence (P46720 whole entry): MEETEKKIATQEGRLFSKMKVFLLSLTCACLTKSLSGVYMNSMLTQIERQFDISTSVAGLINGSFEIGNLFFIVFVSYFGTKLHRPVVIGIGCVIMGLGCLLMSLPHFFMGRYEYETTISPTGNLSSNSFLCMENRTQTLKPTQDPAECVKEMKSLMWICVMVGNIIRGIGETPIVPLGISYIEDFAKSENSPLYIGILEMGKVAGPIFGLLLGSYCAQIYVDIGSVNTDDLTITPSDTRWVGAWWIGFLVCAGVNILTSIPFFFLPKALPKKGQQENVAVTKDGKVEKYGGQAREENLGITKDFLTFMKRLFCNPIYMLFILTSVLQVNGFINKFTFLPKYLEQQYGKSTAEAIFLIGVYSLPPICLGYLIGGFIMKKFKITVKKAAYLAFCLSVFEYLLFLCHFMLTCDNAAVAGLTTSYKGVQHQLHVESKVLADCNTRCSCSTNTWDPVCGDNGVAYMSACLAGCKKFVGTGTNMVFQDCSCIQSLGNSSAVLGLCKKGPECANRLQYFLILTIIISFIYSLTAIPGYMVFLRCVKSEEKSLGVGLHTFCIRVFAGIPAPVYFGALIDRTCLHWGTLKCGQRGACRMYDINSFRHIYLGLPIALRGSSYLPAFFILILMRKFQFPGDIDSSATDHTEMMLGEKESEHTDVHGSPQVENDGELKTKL
The data set can be described thus: TP_TRANSPORTER: uptake in Xenopus laevis oocytes. Format: functional, cell-based. Conditions: oocyte.

Regarding `CCCCNc1cc(C(=O)O)cc(S(N)(=O)=O)c1Oc1ccccc1` [BUMETANIDE], the Activity entry was “is not a substrate [-]”.
